In PMC9138959 (Biomedicines, 2022):
Several values for one entry are separate records, joined by “and”; a condition that tells them apart may be missing. Equal values may be shown once. Entries after “also recorded” stand apart in the source; their conditions may differ.

Legend:
[1] = test system: HEK293T cells
[2] = test system: MERS-CoV; test: microbe, parasite or virus in culture; format: cell-based; details: Middle East respiratory syndrome-related coronavirus, Vero, 24 h, read-out: IC50, inhibition of MERS-CoV infection
[3] = test system: SARS-CoV; test: microbe, parasite or virus in culture; format: cell-based; details: Severe acute respiratory syndrome coronavirus, Vero, 24 h, read-out: IC50, inhibition of SARS-CoV infection
[4] = test system: SARS-CoV-2; test: microbe, parasite or virus in culture; format: cell-based; details: Severe acute respiratory syndrome coronavirus 2, Vero, 24 h; read-out: IC50, inhibition of SARS-CoV-2 infection
[5] = molecular target: SARS-CoV-2 PLpro (Severe acute respiratory syndrome coronavirus 2, UniProt P0DTD1); test: SARS-CoV-2 PLpro activity inhibition assay; format: biochemical; details: 25 μM compound
Method: The fluorescence intensity was measured at 360 nm/460 nm using a Synergy H1 microplate reader (Bio-Tek). GRL061 (BPS Bioscience) was used as a positive control.
To elucidate the mode of action of PGG and PAC, the effect of those compounds on the activity of the viral protease, Mpro, was examined using SARS-CoV-2 Mpro activity assay kits.

[6] = in vitro; details: African green monkey
[7] = molecular target: T1, SARS-CoV-2 RdRp (Severe acute respiratory syndrome coronavirus 2, UniProt P0DTD1); test: cell-based; details: HEK293T cells, 18 h treatment; read-out: IC50, SARS-CoV-2 RdRp activity (NLuc/FLuc)
T1 construct: the RdRp expression plasmid, pCI-SARS-CoV-2 nsp12-N; expressed in transfected cells; host or cells: HEK293T

[8] = molecular target: SARS-CoV-2 Mpro (Severe acute respiratory syndrome coronavirus 2, UniProt P0DTD1); test: SARS-CoV-2 Mpro activity inhibition assay (FRET peptide); format: biochemical; details: MBP-tagged Mpro, FRET peptide substrate, 30 min

Q: For `O=C(OC[C@H]1O[C@@H](OC(=O)c2cc(O)c(O)c(O)c2)[C@H](OC(=O)c2cc(O)c(O)c(O)c2)[C@@H](OC(=O)c2cc(O)c(O)c(O)c2)[C@@H]1OC(=O)c1cc(O)c(O)c(O)c1)c1cc(O)c(O)c(O)c1` [PGG, 1,2,3,4,6-penta-O-galloyl-beta-D-glucose], which “Cytotoxicity or inhibition of host transcription (FLuc internal control levels)” value [1] is on record?
A: without cytotoxicity or the inhibition of host transcription

Q: And the IC50 [2]?
A: 3.47 ± 0.231 µM

Q: And the IC50 [3]?
A: 15.7 ± 1.02 µM

Q: And the IC50 [4]?
A: 15 ± 0.75 µM

Q: What about the “Inhibition of SARS-CoV-2 PLpro activity” value [5] of the same molecule?
A: did not inhibit; also recorded: did not affect

Q: What about the CC50 [6] of the same molecule?
A: > 50 µM

Q: With `Oc1cc(O)c2c(c1)OC(c1ccc(O)c(O)c1)C(OC1(c3ccc(O)c(O)c3)Oc3cc(O)cc(O)c3C(O)C1O)C2` (centres unmarked) [PAC, proanthocyanidin] as the molecule, how does the “Cytotoxicity or inhibition of host transcription (FLuc internal control levels)” value [1] read?
A: without cytotoxicity or the inhibition of host transcription

Q: And the IC50 [7]?
A: 21 ± 1.2 µM

Q: And the IC50 [8]?
A: 25 to 26 µM and 26 µM

Q: What about the IC50 [2] of the same molecule?
A: 4.95 ± 0.181 µM

Q: And the IC50 [3]?
A: 15.2 ± 0.28 µM

Q: What about the IC50 [4] of the same molecule?
A: 25.9 ± 0.81 µM

Q: What about the “Inhibition of SARS-CoV-2 PLpro activity” value [5] of the same molecule?
A: did not inhibit; also recorded: did not affect

Q: What about the CC50 [6] of the same molecule?
A: > 50 µM
